Patent US7071297B2, “Tolerogenic peptides from myelin basic protein” (Apitope Technology (Bristol) Limited, priority 2002, dated 2006)
Read-outs that look alike come from different tables or passages of the source.

Assays:
T cell clone MS60:D2 = assay: Presentation of nested MBP peptides by fixed APC (Mgar cells) to T cell clone MS60:D2, proliferation assay; type: cell-based, human; conditions: p-formaldehyde fixed Mgar (HLA-DR2+ve) cells, T cell clone MS60:D2, 3H-thymidine uptake, FIG. 1
T cell clone N5 = assay: Presentation of MBP peptide 140-154 by fixed APC to T cell clone N5, proliferation assay; type: cell-based, human; conditions: T cell clone N5, FIG. 2
Method: MBP-specific T cell lines (TCL) are generated from 8 MS patients and 2 healthy control donors. PBMC from each subject are separated as described above and plated out at 1×10^6 cells/ml in 6-well plates in the presence of MBP (50 μg/ml); a portion of PBMC from each subject is regularly frozen and stored for subsequent restimulations. Seven days later the cells are fed with fresh medium containing 2% IL-2 (Lymphocult-HT; Biotest LTD., Birmingham, UK), and on day 12 of culture all cells are restimulated with antigen, IL-2 and irradiated (2500 Rad) autologous PBMC as a source of antigen presenting cells (APC), at a cell ratio of 1T cell:5 APC. Cells are expanded in IL-2 every 3-4 days, and on day 14 are restimulated with antigen, IL-2 and PBMC, as described above. On the day of the first restimulation cells are examined for specific proliferation to MBP. Briefly, 2×10^4 T cells and 1×10^5 irradiated autologous PBMC are cultured in triplicate, in 96-well round-bottom plates, in the presence of MBP. […]
Live or p-formaldehyde fixed Mgar (HLA-DR2+ve) cells were incubated with peptides in serum or in serum alone, together with T cells. The T cell proliferative response was measured by ^3H-thymidine uptake as follows. […] [^3H]-Thymidine incorporation is determined using a Microbeta liquid scintillation counter (LKB-Wallac). […]

[1] = system: lymph node cells of HLA:DR2 transgenic mice; assay: Induction of tolerance in HLA:DR2 transgenic mouse, lymph node proliferation assay; type: in vivo
[2] = cited from earlier work; for induction of tolerance: administered in solution
I-A^S = target: T1, I-A^S (Mus musculus, UniProt P06345+P14437); conditions: cited from earlier work
T1 sequence (P14437 1-233): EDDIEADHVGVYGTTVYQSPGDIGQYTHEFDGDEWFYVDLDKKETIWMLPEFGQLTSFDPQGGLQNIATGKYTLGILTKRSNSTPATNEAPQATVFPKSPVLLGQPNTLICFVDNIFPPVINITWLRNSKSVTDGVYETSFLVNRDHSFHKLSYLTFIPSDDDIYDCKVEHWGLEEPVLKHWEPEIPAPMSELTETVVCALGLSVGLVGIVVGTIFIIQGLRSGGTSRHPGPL
T1 sequence (P06345 28-263): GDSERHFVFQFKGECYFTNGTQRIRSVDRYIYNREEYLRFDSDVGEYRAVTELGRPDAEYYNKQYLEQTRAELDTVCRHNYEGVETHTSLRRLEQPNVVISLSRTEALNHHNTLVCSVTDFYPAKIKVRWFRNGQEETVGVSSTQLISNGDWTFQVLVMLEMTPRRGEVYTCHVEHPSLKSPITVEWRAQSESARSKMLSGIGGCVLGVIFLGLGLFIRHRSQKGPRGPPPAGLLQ

Q: With “KGFKGVDAQGTLSKI (listed as Homo sapiens) [MBP 139-153, myelin basic protein peptide 139-153]” as the substance, how does the “presentation by fixed APC to T cells without further processing (apitope)” value (T cell clone MS60:D2) read?
A: Its value is “apitopes”.

Q: Which “presentation by fixed APC to T cells without further processing (apitope)” value (T cell clone MS60:D2) does the source give for “SAHKGFKGVDAQGTL (listed as Homo sapiens) [MBP 136-150, myelin basic protein peptide 136-150]” here?
A: The value was “apitopes”.

Q: For “KSAHKGFKGVDAQGT (listed as Homo sapiens) [MBP 135-149, myelin basic protein peptide 135-149]”, which “presentation by fixed APC to T cells without further processing (apitope)” value (T cell clone MS60:D2) is on record?
A: The value was “apitopes”.

Q: Which results are given for “GFKGVDAQGTLSKIF (listed as Homo sapiens) [MBP 140-154, myelin basic protein peptide 140-154]”?
A: presentation by fixed APC without further processing (T cell clone N5): can be presented by fixed APC without further processing; presentation by fixed APC to T cells without further processing (apitope) (T cell clone MS60:D2): apitopes; SI values of the one pre-treated mouse that failed to show induction of tolerance ([1]; Group B, over peptide concentration range 1-150 ugml^-1): 12-15; Stimulation Index (SI) median of lymphocyte proliferation ([1]; Group B: 100 ug peptide i.n. days -8, -6, -4, immunised with same peptide in CFA, restimulated with 150 ugml^-1 peptide): 3; induction of tolerance ([1]; intranasal pre-treatment, lymphocytes from HLA-DR2 mice): induced tolerance

Q: With “YKSAHKGFKGVDAQG (listed as Homo sapiens) [MBP 134-148, myelin basic protein peptide 134-148]” as the substance, how does the “presentation by fixed APC to T cells without further processing (apitope)” value (T cell clone MS60:D2) read?
A: The value was “apitopes”.

Q: With “AHKGFKGVDAQGTLS (listed as Homo sapiens) [MBP 137-151, myelin basic protein peptide 137-151]” as the substance, how does the “presentation by fixed APC to T cells without further processing (apitope)” value (T cell clone MS60:D2) read?
A: Its value is “apitopes”.

Q: Which “presentation by fixed APC to T cells without further processing (apitope)” value (T cell clone MS60:D2) does the source give for “HKGFKGVDAQGTLSK (listed as Homo sapiens) [MBP 138-152, myelin basic protein peptide 138-152]” here?
A: The value was “apitopes”.

Q: With “MBP[89-101]: myelin basic protein (MBP) peptide 89-101, an immunodominant antigen after immunisation (PHLIRLFSRDAPG; UniProt P04370 89-101, looked up, fragment)” as the substance, how does the induction of tolerance [2] read?
A: The induction of tolerance was “not tolerogenic”.

Q: And the induction of tolerance ([2]; listed as 89-101)?
A: The induction of tolerance was “ineffective at inducing tolerance”.

Q: What about the “immunogenicity (priming for T cell reactivity and induction of EAE)” value ([2]; after immunisation) of the same substance?
A: The value was “very effective immunogen”.

Q: And the “affinity of binding to I-A^S” value (I-A^S)?
A: Its value is “relatively high affinity”.
